The values below come from patent US20210179600A1, “OXAZOLE AND THIAZOLE DERIVATIVES AS INHIBITORS OF ASK1” (Hepagene Therapeutics (HK) Limited, priority 2017, published 2021).

This assay deals with T1, Recombinant human ASK1 kinase (Homo sapiens, UniProt Q99683).
T1 construct: purchased Invitrogen Inc
T1 sequence (Q99683 1-1374): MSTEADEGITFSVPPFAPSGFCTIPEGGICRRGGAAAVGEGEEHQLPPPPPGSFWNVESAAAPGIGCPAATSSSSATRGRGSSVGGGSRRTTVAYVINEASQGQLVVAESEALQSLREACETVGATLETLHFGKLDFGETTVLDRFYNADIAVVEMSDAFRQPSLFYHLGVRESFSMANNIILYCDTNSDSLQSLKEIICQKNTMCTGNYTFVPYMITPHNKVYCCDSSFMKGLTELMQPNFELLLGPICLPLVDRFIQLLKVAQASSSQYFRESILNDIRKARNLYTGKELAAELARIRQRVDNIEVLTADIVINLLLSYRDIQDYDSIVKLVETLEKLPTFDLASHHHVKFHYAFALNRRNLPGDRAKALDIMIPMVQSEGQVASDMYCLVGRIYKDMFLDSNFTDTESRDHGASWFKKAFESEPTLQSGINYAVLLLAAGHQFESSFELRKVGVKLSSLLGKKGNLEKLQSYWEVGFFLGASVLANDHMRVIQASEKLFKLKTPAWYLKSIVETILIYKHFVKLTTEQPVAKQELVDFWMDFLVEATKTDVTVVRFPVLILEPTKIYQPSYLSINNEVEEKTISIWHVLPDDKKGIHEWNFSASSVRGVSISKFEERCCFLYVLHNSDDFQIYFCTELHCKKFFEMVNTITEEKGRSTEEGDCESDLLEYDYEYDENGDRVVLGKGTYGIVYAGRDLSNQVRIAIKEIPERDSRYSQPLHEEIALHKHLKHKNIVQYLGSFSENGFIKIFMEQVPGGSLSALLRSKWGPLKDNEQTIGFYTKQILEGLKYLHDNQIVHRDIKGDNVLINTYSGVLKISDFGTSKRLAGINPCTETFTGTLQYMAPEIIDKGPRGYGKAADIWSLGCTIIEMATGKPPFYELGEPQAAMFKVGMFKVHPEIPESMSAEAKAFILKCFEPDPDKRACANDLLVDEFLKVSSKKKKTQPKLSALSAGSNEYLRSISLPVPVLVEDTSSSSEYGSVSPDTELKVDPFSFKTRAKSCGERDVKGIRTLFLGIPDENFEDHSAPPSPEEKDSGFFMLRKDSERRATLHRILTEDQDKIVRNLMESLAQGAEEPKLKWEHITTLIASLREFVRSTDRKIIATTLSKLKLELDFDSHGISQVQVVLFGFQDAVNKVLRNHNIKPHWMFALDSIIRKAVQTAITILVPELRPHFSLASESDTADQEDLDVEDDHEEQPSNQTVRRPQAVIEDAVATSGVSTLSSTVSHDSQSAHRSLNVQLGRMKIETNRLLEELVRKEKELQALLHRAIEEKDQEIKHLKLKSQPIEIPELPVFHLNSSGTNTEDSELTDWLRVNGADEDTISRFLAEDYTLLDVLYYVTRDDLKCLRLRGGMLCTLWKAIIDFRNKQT
Briefly: ASK1 kinase HTRF assay (KinEASE-STK). Particulars: HTRF detection; 3 nM ASK1 kinase, 1 uM STK-substrate-biotin. It is filed as biochemical.

Turning to `C[C@H](CO)n1cnnc1-c1cccc(-c2ncc(-c3cccc(C4CCCC4)c3)o2)n1` [Compound I-135], the EC50 is no more than 50 nM.

For `C[C@H](CO)n1cnnc1-c1cccc(-c2ncc(-c3cccc(C4=CCCC4)c3)o2)n1` [Compound I-136], the EC50 was no more than 50 nM.

Take `CC(C)n1cnnc1-c1cccc(-c2ncc(-c3cccc(C4=CCCCCC4)c3)o2)n1` [Compound I-138]: the concentration for a half-maximal effect (EC50) is 50 to 500 nM.

For `CC(C)n1cnnc1-c1cccc(-c2ncc(-c3nccs3)o2)n1` [Compound I-141], the concentration giving a half-maximal response (EC50) was 50 to 500 nM.

Take `CC(C)n1cnnc1-c1cccc(-c2ncc(-c3nc4ccccc4o3)o2)n1` [Compound I-142]: the 50% effective concentration (EC50) is 50 to 500 nM.

For `CC(C)n1cnnc1-c1cccc(-c2ncc(-c3cccc(-n4cnc(C5CC5)c4)c3)o2)n1` [Compound I-144], the half-maximal effective concentration (EC50) is no more than 50 nM.

As to `CC(C)n1cnnc1-c1cc(-c2ncc(-c3ccccc3)o2)cs1` [II-01, 3-[4-(5-Phenyl-1,3-oxazol-2-yl)thiophen-2-yl]-4-(propan-2-yl)-4H-1,2,4-triazole], the concentration for a half-maximal effect (EC50) lay within 50 to 500 nM.

One may read the EC50 as the midpoint of the concentration-response curve.
